{"source": "patent US5015661A", "about": "“Chromanes and their pharmaceutical compositions and methods” (Hoffmann-La Roche Inc., priority 1989, dated 1991)", "data": [{"target": "superoxide-dependent, iron-promoted lipid peroxidation of native rat heart cardiac lipid liposomes", "experiment": "Lipid peroxidation inhibition (in vitro testing of antiperoxidative agents, ANTI-OX), hypoxanthine-xanthine oxidase-Fe3+.ADP, rat cardiac liposomes, MDA equivalents", "assay_type": "biochemical", "conditions": "60 min, 37° C., screened at 1.0 μM, IC50 determined if inhibition ≥ 50%, read-out: ANTI-OX IC-50", "procedure": "The test system employs hypoxanthine-xanthine oxidase (XO)-Fe^3+. ADP as the free radical generator and purified, native rat-heart membrane phosphoglyceride in Hepes-KCl buffer, pH 7.4, as the substrate. Inhibition of superoxide-dependent, iron-promoted lipid peroxidation in the linear reaction phase (after 1 hour of reaction) is measured as the net formation of thiobarbituric acid (TBA)-reactive material. In this system, the TBA-reactive material, isolated by HPLC, is exclusively (>95%) malondialdehyde (MDA), a fragmentation end-product arising from fatty acyl hydroperoxides and cyclic endoperoxides. […]\na) Isolation and purification of Rat Cardiac Lipid\nConscious male Sprague-Dawley rats (~275g) maintained on a normal rodent diet were decapitated. The hearts were rapidly removed and perfused via the aorta with ice-cold 10 mM Hepes buffer, pH 7.4. The aorta and atria were removed, and the ventricular tissue was blotted and weighed (wet weight). The hearts were minced on ice with scissors and finally homogenized (100 mg tissue/ml ice-cold buffer) for 15 seconds (3×5 seconds) with a Tekmar Tissumizer at \"maximal\" setting. The homogenate was filtered through 4-ply cheesecloth, and homogenate lipids were extracted and purified by a modified Bligh-Dyer procedure (M.D. Marshall and M. Kates, Biochem. Biophys. Acta 260, 558 (1972). The cardiac lipids were stored in CHCl3 under nitrogen at -20° C. […]\nb) Preparation of Cardiac Liposomes\nLiposomes were prepared from extracted and purified, native rat heart cardiac lipid and were used as substrate for free-radical attack. Cardiac lipid (in CHCl3) was placed in a glass flask and evaporated to dryness under nitrogen at room temperature; the flask was gently rotated during evaporation to yield a thin, dry lipid film. The lipid was taken up in 10 mM Hepes-0.145M KCl, pH 7.4, and was resuspended by indirect an aerobic sonification for 15 minutes at room temperature. The liposome suspension was used immediately. […]\nc) preparation of Fe^3+ -ADP Chelate\nA chelate was formed in Hepes-KCl buffer between Fe^3+ (1.0mM FeCl3, final concentration) and ADP (10mM, final concentration) at pH 7.4 with stirring at room temperature. Chelation was allowed to proceed for 90 minutes prior to use. The chelate was prepared fresh for each days experiments to ensure iron solubility, effective chelation, and valence state. […]\nd) Thiobarbituric Acid Reaction or Determination of Malondialdehvde Equivalents Malondialdehyde (MDA) equivalents were measured as thiobarbituric acid (TBA)-reactive material by the following modification of published methods. The reaction mixture. prepared fresh daily, contained water: BHT ([…] BHT in absolute ethanol): TBA (1.5% TBA in 0.2M Tris, pH 7.0) in the volume ratio 1:1:5. To each 1.0 ml of peroxidation reaction assayed (see below), 0.35 ml reaction mixture was added. After thorough mixing, the tubes were incubated in an 80° C. shaking water bath for 30 minutes. After this time, the tubes were plunged into an ice water bath, and the reaction was immediately stopped with 0.5 ml ice-cold 91% TCA followed by 2.0 ml CHCl3 After centrifugation for 30 minutes at 2000 rpm in a Sorval HL-8 rotor (4° C.), the absorbance of the washed, pink upper phase was read at 532 nm. A standard curve (0.8-40.0 nmol MDA) was run with every assay. For each curve, MDA was freshly prepared by acidification of 1,1,3,3 -tetraethoxypropane with 75% TCA-2.3N HCl (0.15 ml acid mixture with 1.0 ml suitably diluted tetraethoxypropane). Computer-assisted regression analysis of the standard curve was used to quantify the molar amounts of MDA equivalents in the experimental samples. […]\ne) Lipid peroxidation Reaction\nCardiac liposomes were subjected to superoxidedependent. iron-promoted peroxidation in glass vessels to avoid the well-known antioxidant effects of many common polymerizing agents used to fabricate plastic labware. […]", "units": {"IC50": "µM"}, "values": [{"smiles": "Cc1c(C)c2c(c(C)c1O)CCC(C)(CCc1cccs1)O2", "note": "(racemic) [Example 57, rac-3,4-Dihydro-2,5,7,8-tetramethyl-2-[2-(2-thienyl)ethyl]-2H-1-benzo-pyran-6-ol]", "IC50": "> 1"}, {"smiles": "Cc1c(C)c2c(c(C)c1O)CCC(C)(CCc1ccccn1)O2", "note": "(racemic) [Example 58, rac-3,4-Dihydro-2,5,7,8-tetramethyl-2-[2-(2-pyridinyl)ethyl]-2H-1-benzopyran-6-ol]", "IC50": 0.7}, {"smiles": "Cc1c(C)c2c(c(C)c1O)CCC(C)(CCc1cccnc1)O2", "note": "(racemic) [Example 59, rac-3,4-Dihydro-2,5,7,8-tetramethyl-2-[2-(3-pyridinyl)ethyl]-2H-1-benzopyran-6-ol]", "IC50": 0.5}, {"smiles": "COc1ccc(CCC2(C)CCc3c(C)c(O)c(C)c(C)c3O2)cc1OC(C)=O", "note": "(racemic) [Example 60, rac-2-{2-[3-(Acetyloxy)-4-methoxyphenyl]ethyl}-3,4-dihydro-2,5,7,8-tetramethyl-2H-1-benzopyran-6ol]", "IC50": "> 1"}, {"smiles": "Cc1c(C)c2c(c(C)c1O)CCC(C)(CCc1ccc(O)c(O)c1)O2", "note": "(racemic) [Example 61, rac-4-[2-(3,4-Dihydro-6-hydroxy-2,5,7,8-tetramethyl-2H-1-benzopyran-2-yl)ethyl]-1,2-benzenediol]", "IC50": "> 1"}, {"smiles": "COc1cccc(CCC2(C)CCc3c(C)c(O)c(C)c(C)c3O2)c1", "note": "(racemic) [Example 62, rac-3,4-Dihydro-2-[2-(3-methoxyphenyl)ethyl]-2,5,7,8-tetramethyl-2H-1-benzopyran-6-ol]", "IC50": "> 1"}, {"smiles": "COC(=O)c1cc(CCC2(C)CCc3c(C)c(O)c(C)c(C)c3O2)ccc1O", "note": "(racemic) [Example 63, rac-5-[2-(3,4-Dihydro-6-hydroxy-2,5,7,8-tetramethyl-2H-1-benzopyran-2-yl)ethyl]-2-hydroxybenzoic acid methyl ester]", "IC50": "> 1"}, {"smiles": "Cc1c(C)c2c(c(C)c1O)CCC(C)(CCc1ccc(-c3cccnc3)cc1)O2", "note": "(racemic) [Example 64, rac-3,4-Dihydro-2,5,7,8-tetramethyl-2-{2-[4-(3-pyridinyl)-phenyl]ethyl}-2H-1-benzopyran-6-ol]", "IC50": "> 1"}, {"smiles": "Cc1c(C)c2c(c(C)c1O)CCC(C)(CCc1ccc(-c3ccccn3)s1)O2", "note": "(racemic) [Example 65, rac-3,4-Dihydro-2,5,7,8-tetramethyl-2-{2-[5-(2-pyridinyl)-2-thienyl]ethyl}-2H-1-benzopyran-6ol]", "IC50": "> 1"}, {"smiles": "CCCCc1ccc(CCC2(C)CCc3c(C)c(O)c(C)c(C)c3O2)s1", "note": "(racemic) [Example 66, rac-2-[2-(5-Butyl-2-thienyl)ethyl]-3,4-dihydro-2,5,7,8-tetramethyl-2H-1-benzopyran-6-ol]", "IC50": "> 1"}, {"smiles": "Cc1c(C)c2c(c(C)c1O)CC[C@](C)(C#Cc1cccs1)O2", "note": "[Example 5, (R)-3,4-Dihydro-2,5,7,8-tetramethyl-2-[(2-thienyl)ethynyl]-2H-1-benzopvran-6-ol]", "IC50": 0.8}, {"smiles": "Cc1c(C)c2c(c(C)c1O)CC[C@@](C)(C#Cc1cccs1)O2", "note": "[Example 13, (S)-3,4-Dihydro-2,5,7,8-tetramethyl-2-[(2-thienyl)ethynyl]-2H-1-benzopyran-6-ol]", "IC50": "> 1"}, {"smiles": "Cc1c(C)c2c(c(C)c1O)CCC(C)(C#Cc1ccc3c(c1)N(C)C(=O)CO3)O2", "note": "(stereo not shown) [Example 48]", "IC50": 0.75}]}]}
